By Ki is commonly meant the dissociation constant of the complex between target and ligand, obtained from inhibition or displacement. Low readings indicate higher affinity, high ones lower affinity.

The target in assay [1] is Muscarinic acetylcholine receptor M3 (Rattus norvegicus, UniProt P08483). The assay is described as follows: Affinity constant measured against M3 muscarinic receptor in rat submaxillary gland. It is filed as tissue-based.
In assay [2] the target is Muscarinic acetylcholine receptor M3 (Cavia porcellus, UniProt Q8VH26). The assay is described as follows: Antagonistic activity measured in isolated guinea pig […] (M3 receptor). As to conditions: read-out: pA2 (converted). The class given is functional, tissue-based.
In assay [3] the target is T1, Muscarinic acetylcholine receptor M1 (Rattus norvegicus, UniProt P08482).
T1 sequence (P08482 whole entry): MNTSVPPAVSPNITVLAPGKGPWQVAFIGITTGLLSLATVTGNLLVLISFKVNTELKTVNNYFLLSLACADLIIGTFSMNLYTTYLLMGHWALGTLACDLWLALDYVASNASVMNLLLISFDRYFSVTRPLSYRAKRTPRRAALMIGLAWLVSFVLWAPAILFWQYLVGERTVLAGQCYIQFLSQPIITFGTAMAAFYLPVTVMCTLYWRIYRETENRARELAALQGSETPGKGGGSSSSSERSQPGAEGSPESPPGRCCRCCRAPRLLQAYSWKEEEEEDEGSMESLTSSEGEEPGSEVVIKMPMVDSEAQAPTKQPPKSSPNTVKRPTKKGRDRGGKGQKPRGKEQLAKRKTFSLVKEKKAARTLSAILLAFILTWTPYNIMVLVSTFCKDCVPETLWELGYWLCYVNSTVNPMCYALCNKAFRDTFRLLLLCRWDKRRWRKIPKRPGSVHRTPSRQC
The assay can be described thus: Affinity constant measured against M1 muscarinic receptor in rat cortex.

Assay [4] has as its target T2, Muscarinic acetylcholine receptor M4 (Rattus norvegicus, UniProt P08485).
T2 sequence (P08485 whole entry): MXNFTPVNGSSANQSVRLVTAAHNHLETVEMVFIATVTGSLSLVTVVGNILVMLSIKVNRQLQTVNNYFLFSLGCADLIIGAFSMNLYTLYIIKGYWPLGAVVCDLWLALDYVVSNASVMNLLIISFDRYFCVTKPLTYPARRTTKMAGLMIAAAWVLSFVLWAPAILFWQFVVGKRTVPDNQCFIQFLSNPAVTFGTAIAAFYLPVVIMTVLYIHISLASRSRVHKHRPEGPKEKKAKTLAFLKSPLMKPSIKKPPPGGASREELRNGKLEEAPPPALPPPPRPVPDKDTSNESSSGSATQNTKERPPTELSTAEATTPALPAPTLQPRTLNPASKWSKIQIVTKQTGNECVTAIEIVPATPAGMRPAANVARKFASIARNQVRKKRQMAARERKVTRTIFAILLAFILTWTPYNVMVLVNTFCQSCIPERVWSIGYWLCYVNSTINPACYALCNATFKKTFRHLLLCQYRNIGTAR
The assay is described as follows: Affinity constant measured against M4 muscarinic receptor rat NG108-15 cells. The class given is cell-based.

The target in assay [5] is T3, Muscarinic acetylcholine receptor M2 (Homo sapiens, UniProt P08172).
T3 sequence (P08172 whole entry): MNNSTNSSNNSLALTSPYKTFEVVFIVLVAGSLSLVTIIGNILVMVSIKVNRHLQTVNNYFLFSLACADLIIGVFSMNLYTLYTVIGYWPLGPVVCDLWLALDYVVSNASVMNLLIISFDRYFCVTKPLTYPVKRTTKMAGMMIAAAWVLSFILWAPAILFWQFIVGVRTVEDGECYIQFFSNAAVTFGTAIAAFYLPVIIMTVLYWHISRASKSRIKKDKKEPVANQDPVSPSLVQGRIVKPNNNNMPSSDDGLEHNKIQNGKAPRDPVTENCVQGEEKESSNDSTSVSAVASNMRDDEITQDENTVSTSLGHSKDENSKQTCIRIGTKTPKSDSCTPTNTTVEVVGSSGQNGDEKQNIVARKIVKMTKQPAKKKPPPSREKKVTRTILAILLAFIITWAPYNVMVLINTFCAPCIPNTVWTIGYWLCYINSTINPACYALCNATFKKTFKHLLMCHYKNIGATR
The assay can be described thus: Antagonistic activity measured in isolated guinea pig left atrium (M2 receptor). To be noted: target entry is the homologue from another species; read-out: pA2 (converted). The class given is functional, tissue-based, Cavia porcellus, Cardiac atrium.

For assay [6], the system named is Muscarinic acetylcholine receptors M2 & M3 (Cavia porcellus). The assay is described as follows: Selectivity ratio between atrium (M2) and ileum (M3) was determined.

Chain of Muscarinic acetylcholine receptor M3 (Cavia porcellus, UniProt Q8VH26) (Q8VH26 whole entry): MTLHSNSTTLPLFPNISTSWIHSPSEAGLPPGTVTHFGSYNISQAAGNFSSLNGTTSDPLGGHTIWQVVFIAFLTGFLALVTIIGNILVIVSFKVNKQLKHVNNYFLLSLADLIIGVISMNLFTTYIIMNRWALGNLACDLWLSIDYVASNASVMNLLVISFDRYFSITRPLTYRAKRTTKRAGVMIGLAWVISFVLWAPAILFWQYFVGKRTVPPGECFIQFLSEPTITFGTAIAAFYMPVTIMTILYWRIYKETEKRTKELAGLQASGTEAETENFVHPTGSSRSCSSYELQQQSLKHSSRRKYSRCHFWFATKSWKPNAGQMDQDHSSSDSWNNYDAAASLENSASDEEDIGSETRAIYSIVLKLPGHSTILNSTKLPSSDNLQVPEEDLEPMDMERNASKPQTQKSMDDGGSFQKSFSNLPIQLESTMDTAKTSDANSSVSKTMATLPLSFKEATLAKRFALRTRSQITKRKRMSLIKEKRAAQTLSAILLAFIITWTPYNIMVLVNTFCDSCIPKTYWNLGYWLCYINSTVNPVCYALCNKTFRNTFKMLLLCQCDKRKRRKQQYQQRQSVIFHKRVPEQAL
Chain of Muscarinic acetylcholine receptor M3 (Rattus norvegicus, UniProt P08483) (P08483 whole entry): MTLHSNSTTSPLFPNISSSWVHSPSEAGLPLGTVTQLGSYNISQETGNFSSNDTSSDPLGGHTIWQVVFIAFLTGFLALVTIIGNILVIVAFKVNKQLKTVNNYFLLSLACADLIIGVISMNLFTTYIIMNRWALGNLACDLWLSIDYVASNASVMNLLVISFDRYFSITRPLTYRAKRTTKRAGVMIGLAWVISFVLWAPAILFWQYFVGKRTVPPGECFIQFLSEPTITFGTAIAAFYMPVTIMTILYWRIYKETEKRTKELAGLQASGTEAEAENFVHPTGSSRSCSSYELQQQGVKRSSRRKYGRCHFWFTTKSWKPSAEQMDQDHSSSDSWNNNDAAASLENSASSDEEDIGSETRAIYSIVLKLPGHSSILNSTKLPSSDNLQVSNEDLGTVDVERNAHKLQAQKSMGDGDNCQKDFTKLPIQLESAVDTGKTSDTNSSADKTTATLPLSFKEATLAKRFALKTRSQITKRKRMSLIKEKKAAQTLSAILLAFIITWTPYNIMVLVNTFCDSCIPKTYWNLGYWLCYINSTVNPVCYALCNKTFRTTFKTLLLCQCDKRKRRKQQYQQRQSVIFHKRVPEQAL

As to `CCN(CC)CCCCC1CCN(CC(=O)N2c3ccccc3C(=O)Nc3cccnc32)CC1`, the Ki in assay [1] is 158 nM; in assay [3] it was 25.1 nM; in assay [4] it was 10 nM. The Kb in assay [2] is 251 nM.
`CN(CCCCCCCCN(C)CCCCCCN(CC(=O)N1c2ccccc2C(=O)Nc2cccnc21)CC(=O)N1c2ccccc2C(=O)Nc2cccnc21)CCCCCCNCC(=O)N1c2ccccc2C(=O)Nc2cccnc21` [TRIPITRAMINE]: the inhibition constant Ki in assay [1] is 646 nM; in assay [3], 23.4 nM; in assay [4], 11.7 nM. Further, the Kb in assay [2] was 282 nM.
On to `CN(CCCCCCCCN(C)CCCCCCNCC(=O)N1c2ccccc2C(=O)Nc2cccnc21)CCCCCCNCC(=O)N1c2ccccc2C(=O)Nc2cccnc21`, for which the Kb in assay [2] is 126 nM; in assay [5] it was 0.724 nM.
Consider `COc1ccccc1CNCCCCCCN(C)CCCCCCCCN(C)CCCCCCNCc1ccccc1OC`, for which the Selectivity ratio in assay [6] came out at 48. The values for the Kb in assay [2] and in assay [5] were 603 nM and 12.6 nM, respectively.
In the case of `COc1ccccc1CNCCCCCCNCCCCCCCCNCCCCCCNCc1ccccc1OC` [METHOCTRAMINE], the values for the inhibition constant Ki in assay [1] and in assay [4] were 1100 nM and 26.3 nM, respectively. In addition, the Kb in assay [2] is 479 nM.

(Values after ChEMBL document CHEMBL1126912 (J Med Chem, 1993).)
